We go through 2 compounds from patent publication EP4711361A1, “NITROGEN-CONTAINING HETEROCYCLIC COMPOUND AND USE THEREOF” (Jiangsu Deyuan Pharmaceutical Co.,Ltd., priority 2023, dated 2024).

One data set addresses T1, human CYP11B2 (Homo sapiens, UniProt P19099).
T1 construct: expressed in transfected cells; host or cells: human renal leiomyoma G402 cells (monoclonal)
T1 sequence (P19099 25-503): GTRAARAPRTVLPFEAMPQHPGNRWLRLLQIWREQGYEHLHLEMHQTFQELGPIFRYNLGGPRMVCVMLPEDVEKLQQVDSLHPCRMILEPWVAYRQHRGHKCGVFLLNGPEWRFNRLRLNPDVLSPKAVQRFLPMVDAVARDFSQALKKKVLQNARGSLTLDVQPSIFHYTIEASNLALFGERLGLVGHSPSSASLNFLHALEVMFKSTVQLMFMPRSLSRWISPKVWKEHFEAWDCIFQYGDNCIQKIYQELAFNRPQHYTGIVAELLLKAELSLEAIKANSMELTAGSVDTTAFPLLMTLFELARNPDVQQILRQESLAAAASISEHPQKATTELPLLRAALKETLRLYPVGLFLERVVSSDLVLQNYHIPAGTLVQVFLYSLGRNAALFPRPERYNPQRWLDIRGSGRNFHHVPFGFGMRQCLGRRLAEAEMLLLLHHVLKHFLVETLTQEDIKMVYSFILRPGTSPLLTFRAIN
Nature of the data set: In vitro activity assay of monoclonal cells overexpressing human CYP11B2. The format is cell-based. Particulars: G402 cells overexpressing human CYP11B2; 1 µM 11-deoxycorticosterone, 16 hours; aldosterone by LC-MS/MS. As to the method: The human renal leiomyoma G402 cell line overexpressing human CYP11B2 was selected to serve as a compound activity screening system. Table 1: Cell and reagent information
2) Compound details: The test compound was prepared as a 10 µM working concentration using DMSO. 3) Experimental procedure
Day 1: Cells were digested, and human renal leiomyoma G402 cells overexpressing human CYP11B2 were resuspended to 1×10^5 cells/mL, with 100 µL seeded into a 96-well plate.
(§1) Day 3: The cell supernatant was collected and added to 200 µL of a methanol solution containing internal standards (internal standards: 35 ng/mL ketoprofen or 7.5 ng/mL carbamazepine or 5 ng/mL diphenhydramine or 10 ng/mL tolbutamide). The mixture was vortexed and centrifuged (4000×g, 4°C, 5 minutes). Then, 100 µL of the supernatant was taken and mixed with 100 µL of pure water.
Ratio = Aldosterone peak area/Internal standard peak area [formula] Control activity% = (Ratiotestcompound/RatioDMSO) × 100% [formula]
(§2) "Ratio test compound" represents the Ratio values at different concentrations of the test compound.
(§3) "Ratio DMSO" represents the Ratio value without the addition of the test compound. • X = Log (compound concentration) • Y = Control activity%
The IC50 of the test compound was determined by fitting to a nonlinear regression equation using XLfit 5.5.0. Table 3: Results for in vitro activity assay of monoclonal cells overexpressing human CYP11B2

A further data set addresses T2, human CYP11B1 (Homo sapiens, UniProt P15538).
T2 construct: expressed in transfected cells; host or cells: human renal leiomyoma G402 cells (monoclonal)
T2 sequence (P15538 25-503): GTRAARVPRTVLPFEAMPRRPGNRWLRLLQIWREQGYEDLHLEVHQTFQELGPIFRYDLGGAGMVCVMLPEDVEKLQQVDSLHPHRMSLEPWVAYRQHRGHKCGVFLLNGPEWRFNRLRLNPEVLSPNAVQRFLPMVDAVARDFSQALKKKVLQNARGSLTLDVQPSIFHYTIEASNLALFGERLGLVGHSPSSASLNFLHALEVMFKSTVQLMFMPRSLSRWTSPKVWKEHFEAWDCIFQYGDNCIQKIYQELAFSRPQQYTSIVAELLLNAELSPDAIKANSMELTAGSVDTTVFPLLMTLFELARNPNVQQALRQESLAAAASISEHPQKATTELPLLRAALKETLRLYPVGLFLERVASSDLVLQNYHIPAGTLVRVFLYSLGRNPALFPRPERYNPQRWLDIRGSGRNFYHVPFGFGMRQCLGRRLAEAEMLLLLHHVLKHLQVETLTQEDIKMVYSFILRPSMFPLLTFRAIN
Kind of data set: In vitro activity assay of monoclonal cells overexpressing human CYP11B1. In kind it is cell-based. Particulars: G402 cells overexpressing human CYP11B1; 1 µM 11-deoxycortisol, 16 hours; cortisol by LC-MS/MS. As to the method:
The human renal leiomyoma G402 cell line overexpressing human CYP11B1 was selected to serve as a compound selectivity screening system.
Day 1: Cells were digested, and human renal leiomyoma G402 cells overexpressing CYP11B1 were resuspended to 1×10^5 cells/mL, with 100 µL seeded into a 96-well plate.
as §1
Ratio = Cortisol peak area/Internal standard peak area [formula] Control activity% = (Ratiotestcompound/RatioDMSO) × 100% [formula]
as §2, §3
The IC50 of the test compound was determined by fitting to a nonlinear regression equation using XLfit 5.5.0. Table 4: Results for in vitro activity assay of monoclonal cells overexpressing human CYP11B1

The nature of data set [1]: Permeability test (MDR1-MDCKII monolayer, bidirectional transport). In kind it is in vitro ADME. Particulars: dog; for efflux ratio at 2.5 h, 2 µM: MDCK-MDR1, pH 7.4, ER = Papp (BA)/ Papp (AB); for Papp A→B at 2.5 h, 2 µM: MDCK-MDR1, pH 7.4, pH 7.40, 2.5 hours, A to B, read-out: Apparent permeability coefficient (Papp (AB), 10^-6 cm/s). As to the method: Experimental objective: The permeability and efflux ratio of the compound of the present disclosure were determined using the MDR1-MDCKII monolayer cell model to assess its membrane permeability and potential for P-gp-mediated efflux transport.
Experimental protocol: MDR1-MDCKII cells (obtained from the Netherlands Cancer Institute) were seeded in 96-well plates (obtained from Corning) at a cell density of 3.33 × 10^5 cells/mL and cultured for 4 to 7 days to form confluent cell monolayers. Hank's balanced salt solution containing 10 mM HEPES (pH 7.40) was used as the transport buffer. The test compound was evaluated for bidirectional transport at a concentration of 2 µM, with the DMSO concentration in the incubation system maintained below 1%. After adding the samples, the cell plate was incubated at 37±1°C, 5% CO2, and saturated humidity for 2.5 hours. All samples were quantitatively analyzed using the LC-MS/MS method. The apparent permeability coefficient (Papp, cm/s) and efflux ratio (ER) were calculated using the following formula. Apparent permeability coefficient (Papp, cm/s) was calculated using the following formula: Papp = (dCr/dt) x Vr / (A x C0). Herein, dCr/dt represents the cumulative concentration of the compound at the receiving end per unit time (µM/s); Vr is the volume of the solution at the receiving end (with solution volumes at the apical and basolateral ends being 0.075 mL and 0.250 mL, respectively); A is the relative surface area of the cell monolayer (0.143 cm^2); C0 is the initial concentration of the test substance at the dosing end (µM) or the peak area ratio of the reference substance. The efflux ratio was calculated using the following formula: ER = Papp (BA)/ Papp (AB). Table 7: Permeability test results of compounds

The next data set in a line: in vivo. Particulars: cynomolgus monkey, po.
The nature of data set [2]: in vitro. Particulars: human, microsomes.
Data set [3] is described as follows: in vitro. Particulars: rat, plasma.
Data set [4] is described as follows: in vitro. Conditions: cynomolgus monkey, plasma.
The nature of data set [5]: in vitro. Conditions: human, plasma.

Molecules are shown by their SMILES.

Usually IC50 stands for the point on the concentration scale where inhibition reaches its midpoint. By efflux ratio is commonly meant the permeability from basolateral to apical divided by that in the opposite direction, in the common usage. What is called AUC(0-t) is the area under the concentration-time curve up to a stated or last time point. Read a low AUC(0-t) as low exposure. In general, Cmax refers to the maximum level reached in the sampled fluid or tissue. A word on the half-life: it is the time needed for the level to fall by half in the phase considered. Read a high half-life as slow decline. In general, CLint scaled refers to a measure of how fast metabolising enzymes remove a compound, apart from limits set by blood flow. Read a low CLint scaled as slow turnover. In general, fraction unbound refers to free concentration divided by total concentration. Higher therefore signals much free substance. Take `CCC(=O)NC1CCCc2c(-c3cc(F)c4c(ccc(=O)n4C)c3)cncc21` (single isomer, unassigned) [Compound 018]: the results for the IC50 against human CYP11B2 and at human CYP11B1 were 20.7 nM and 3810 nM, respectively. In addition, the efflux ratio at 2.5 h, 2 µM in data set [1] turned out to be 1.32. Moreover, the Papp A→B at 2.5 h, 2 µM in data set [1] was 24.6 ×10⁻⁶ cm/s. The compound also registered an AUC(0-t) at 24 h in the data set “in vivo” (1 mg/kg) of 7.59 µM·h. Besides, the Cmax in “in vivo” (1 mg/kg) came out at 1310 nM. The compound also had a half-life in the data set “in vivo” (1 mg/kg) of 5.35 h. The CLint scaled at 1 µM in “in vitro [2]” was less than 8.6 mL/min/kg. Also, the free fraction (fraction unbound) at 4 h, 2 µM is 0.08 in the data set “in vitro [3]”, 0.205 in “in vitro [4]” and 0.191 in the data set “in vitro [5]”.
The compound `CCC(=O)NC1CCCc2c(-c3cc4ccc(=O)n(C)c4cc3F)cncc21` (single isomer, unassigned) [Compound 019] showed an IC50 against human CYP11B2 of 17.3 nM. The same compound came in with an IC50 at human CYP11B1 of 1680 nM. In data set [1], the efflux ratio at 2.5 h, 2 µM came to 1.55 and the Papp A→B at 2.5 h, 2 µM stood at 21.5 ×10⁻⁶ cm/s. Besides, in the data set “in vivo” (3 mg/kg), the AUC(0-t) at 24 h came out at 23.9 µM·h, the concentration peaked (Cmax) at 3800 nM, the bioavailability stood at 113% and the half-life is 4.65 h. In addition, the CLint scaled at 1 µM in “in vitro [2]” is less than 8.6 mL/min/kg. In “in vitro [3]”, the free fraction (fraction unbound) at 4 h, 2 µM is 0.129. The compound also had a fraction unbound at 4 h, 2 µM in “in vitro [4]” of 0.248. In addition, the unbound share (fraction unbound) at 4 h, 2 µM in “in vitro [5]” was 0.238.
